Assay results taken from article PMC6466477 (Journal of Medicinal Chemistry, 2019).

Experiments:
hA3AR [1] = target: T1, hA3AR (Homo sapiens, UniProt P0DMS8); assay type: biochemical; settings: for mode of antagonism: [35S]GTPγS binding assays, overall; for Schild slope, co-incubation: antagonist co-incubated with 2-Cl-IB-MECA for 30 min at 25 °C; for type of antagonism in co-incubation experiment: co-incubated with 2-Cl-IB-MECA; for type of antagonism in preincubation experiment: pretreatment with antagonist before 2-Cl-IB-MECA
T1 sequence (P0DMS8 1-318): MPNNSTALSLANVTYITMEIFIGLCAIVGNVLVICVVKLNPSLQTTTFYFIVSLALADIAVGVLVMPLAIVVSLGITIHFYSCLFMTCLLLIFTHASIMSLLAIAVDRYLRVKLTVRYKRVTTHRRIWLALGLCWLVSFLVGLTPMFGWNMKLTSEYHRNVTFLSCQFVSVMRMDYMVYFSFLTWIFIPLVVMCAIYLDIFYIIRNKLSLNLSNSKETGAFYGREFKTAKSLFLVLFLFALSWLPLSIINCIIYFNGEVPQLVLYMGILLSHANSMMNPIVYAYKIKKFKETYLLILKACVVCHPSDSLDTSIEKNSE

hA3AR [2] = target: T1, hA3AR; settings: 25 °C; ref 7 (Xia et al.); cited from earlier work
hA3AR [3] = target: T1, hA3AR; assay: Time-dependent [3H]PSB-11 displacement with or without 4 h preincubation; assay type: binding; settings: no preincubation, 0.5 h co-incubation with [3H]PSB-11, 25 °C
hA3AR [4] = target: T1, hA3AR; assay: Radioligand competition association assay with [3H]PSB-11; assay type: binding; settings: competition association curve, Figure 3

Structure (SMILES): CCCn1c(=O)c2c(nc3cc(OC)ccn32)n(CCCNC(=O)c2ccc(S(=O)(=O)F)cc2)c1=O [compound 17b, 4-((3(8-Methoxy-2,4-dioxo-3-propyl-3,4-dihydropyrido[2,1-f]purin-1(2H)yl)propyl)carbamoyl)benzenesulfonyl Fluoride]
- mode of antagonism (hA3AR [1]): competitive insurmountable
- Schild slope, co-incubation (hA3AR [1]): 1.1 ± 0.1
- type of antagonism in co-incubation experiment (hA3AR [1]): surmountable antagonism
- type of antagonism in preincubation experiment (hA3AR [1]): insurmountable antagonism

Structure (SMILES): CC[C@@H]1CN2C(=O)N(C)c3nc(-c4ccccc4)[nH]c3C2=N1 [[^3H]PSB-11, [^3H]8-Ethyl-4-methyl-2-phenyl-(8R)-4,5,7,8-tetrahydro-1H-imidazo[2,1-i]-purin-5-one]
- koff (k2) of radioligand (hA3AR [2]): 0.3992 ± 0.02 min^–1
- kon (k1) of radioligand (hA3AR [2]): 0.281 ± 0.04 × 10^8 M^–1 min^–1

Structure (SMILES): CCCn1c(=O)c2c(nc3cc(OC)ccn32)n(CCCNC(=O)c2ccc(S(C)(=O)=O)cc2)c1=O [compound 19, N-(3-(8-Methoxy-2,4-dioxo-3-propyl-3,4-dihydropyrido[2,1-f]purin-1(2H)-yl)propyl)-4-(methylsulfonyl)benzamide]
- hA3AR pKi (pre-0 h) (hA3AR [3]): 6.2 ± 0.03
- time to reach equilibrium (hA3AR [4]): ≤ 30 min
- mode of antagonism (hA3AR [1]): competitive surmountable
- Schild slope, co-incubation (hA3AR [1]): 1.0 ± 0.1
- Schild slope, preincubation (hA3AR [1]; antagonist preincubated 60 min at 25 °C before 2-Cl-IB-MECA for 30 min): 1.1 ± 0.1
- type of antagonism in co-incubation experiment (hA3AR [1]): surmountable antagonism
- type of antagonism in preincubation experiment (hA3AR [1]): surmountable antagonism
